From patent US5817689A, “Indole derivatives having a 2-phenyl-ethanolamino-substituted lower alkyl group at the 2-or 3-position thereof” (priority 1994, dated 1998)

Legend:
[1] = target: T1, human β2 -adrenergic receptor (Homo sapiens, UniProt P07550); assay: Human β2-adrenergic receptor-stimulating activity (cAMP accumulation in CHO/pKREX21-8 cells); format: cell-based
T1 construct: expressed in transfected cells; host or cells: CHO-K1, clone CHO/pKREX21-8
Text: cDNA was synthesized with Poly(A)^+ RNA derived from human brain (Clontech: trade number; CL6516-1) by using SuperScript Systems (Life Technologies).
After the reaction mixture was digested with restriction endonucleases Sse8387I and HindIII, about 1.4 kbp fragment was isolated by electrophoresis. This fragment was ligated with expression vector pKCN1 digested with restriction endonucleases Sse8387I and HindIII, and was introduced into E. coli HB101 in a conventional manner. Plasmid DNA was prepared from the selected transformant, and the nucleotide sequence of the about 1.4 kbp fragment obtained by digestion of this plasmid DNA with restriction endonucleases Sse8387I and HindIII was determined. […] This plasmid was named as pKREX21 for highly expressing human β2 -adrenergic receptor, and was introduced into CHO-K1 in the same manner as the method of establishment of the cell line highly expressing human β3 -adrenergic receptor.
(§1) Experiment 1 Human β-adrenergic receptor-stimulating activity:
(§2) The cells were peeled off by incubation with phosphate-buffered saline containing 0.5 mM EDTA at 37° C. for 10 minutes after the medium was removed. The CHO/pKREX10-36 cells were collected by centrifugation, and suspended in Hanks' balanced salts (ICN Biomedicals) containing 1 mM L-ascorbic acid and 1 mM 3-isobutyl-1-methylxanthine at the concentration of about 2×10^6cells/ml. This suspension (100μl) and a test compound were mixed in the same balanced salt (500 μl) and incubated at 37° C. for 30 minutes, followed by boiling for 5 minutes to terminate the reaction. After centrifugation of the reaction mixture, the amount of cAMP in the supernatant was measured by using cAMP EIA System (Amersham).
Similarly, the amount of cAMP was measured by using CHO/pKREX21-8 for highly expressing human β2 -adrenergic receptor instead of the CHO/pKREX10-36 for highly expressing human β3 -adrenergic receptor.

[2] = system: glucose level in the blood; assay: Blood glucose reducing activity on fasted mouse; format: in vivo, ddY male mouse; conditions: po, 3 h, read-out: Blood glucose reducing activity (ED25)
Description: Experiment 2 Blood glucose reducing activity on fasted mouse:
A test compound suspended in 0.5% tragacanth solution was orally administered to a ddY male mouse (weight: 20-30 g) under being fasted, and the blood was collected before and at three hours after the administration of the test compound. The glucose level in the blood was determined by the method of Kunst A., et al. (Hexokinase/G6PDH method) [Bergmeyer, H. U. (eds.), […], vol. VI, 3rd edition, Verlag Chemie GmbH, Weinheim·Deerfield Beach, Florida·Basel, 163-172 (1984)]. The blood glucose reducing activity of the test compound was expressed by ED25 value which is a concentration of the test compound required to reduce the glucose level in blood before the administration of the test compound by 25%. Gliclazide was used as a reference compound which is a commercially available drug for treatment of diabetes mellitus.

[3] = Acute toxicity experiment using mice; format: in vivo; conditions: oral administration at a dose of 300 mg/kg
Text: Thus, when taking into consideration the therapeutically effective dose, the compounds of the present invention have no problem in safety to living body.

[4] = target: T2, human β3 -adrenergic receptor (Homo sapiens, UniProt P13945); assay: Human β3-adrenergic receptor-stimulating activity (cAMP accumulation in CHO/pKREX10-36 cells); format: cell-based
T2 construct: expressed in transfected cells; host or cells: CHO-K1 (ATCC CCL 61), clone CHO/pKREX10-36
T2 sequence (P13945 whole entry): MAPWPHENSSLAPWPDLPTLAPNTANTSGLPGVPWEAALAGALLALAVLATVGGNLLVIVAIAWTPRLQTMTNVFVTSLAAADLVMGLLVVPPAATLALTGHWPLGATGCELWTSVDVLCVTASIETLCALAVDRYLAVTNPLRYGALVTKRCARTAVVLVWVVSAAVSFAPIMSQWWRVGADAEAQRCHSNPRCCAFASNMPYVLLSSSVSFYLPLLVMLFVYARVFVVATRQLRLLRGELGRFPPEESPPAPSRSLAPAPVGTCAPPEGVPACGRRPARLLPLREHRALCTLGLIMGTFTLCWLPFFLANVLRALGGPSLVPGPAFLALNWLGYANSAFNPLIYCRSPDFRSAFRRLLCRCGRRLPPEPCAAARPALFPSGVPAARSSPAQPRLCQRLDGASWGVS
Description: Establishment of the cell line highly expressing human β3 -adrenergic receptor
Separately, another expression vector for animal cells, pSV2-neo [Southern and Berg, J. Mol. Appl. Genet. […] These DNAs were ligated with DNA Ligation Kit (Takara Shuzo Co., Ltd.) and were introduced into E. coli HB101 in a conventional manner to give the transformants. Plasmid DNAs were prepared from the transformants and digested with a restriction endonuclease PstI. A clone which produced about 3.8 kbp, 2.2 kbp, 1.4 kbp, and 0.9 kbp fragments was selected to give a plasmid named pKCN0.
The reaction mixture was used for transformation of E. coli HB101 and plasmid DNAs were prepared from the selected transformants. The plasmid DNAs were digested with restriction endonucleases DraI and HindIII, and a clone which produced about 430 bp fragment was selected to give a plasmid named pKCN1 for expression vector.
10% Dimethyl sulfoxide was added to the reaction mixture at the PCR reaction.
After the reaction mixture was digested with restriction endonucleases Sse8387I and StuI, about 1.3 kbp fragment was isolated by electrophoresis. This fragment was ligated with expression vector pKCN1 which was digested with restriction endonucleases Sse8387I and EcoRV, and the resultant was introduced into E. coli HB101 in a conventional manner. Plasmid DNA was prepared from the selected transformant and the nucleotide sequence of the about 1.3 kbp fragment obtained by digestion of the plasmid DNA with restriction endonucleases Sse8387I and XhoI was determined. […] This plasmid for expressing human β3 -adrenergic receptor was named as pKREX10.
The reaction mixture was filtered with glass filter GF/C (Whatman) presoaked with 0.3% polyethyleneimine and washed by using BIO-DOT apparatus (Bio-Rad Laboratories), and the radioactivity on the filter was counted by γ-ray counter. […] Establishment of the cell line highly expressing human β2 -adrenergic receptor
as §1, §2

T1 sequence (P07550 whole entry): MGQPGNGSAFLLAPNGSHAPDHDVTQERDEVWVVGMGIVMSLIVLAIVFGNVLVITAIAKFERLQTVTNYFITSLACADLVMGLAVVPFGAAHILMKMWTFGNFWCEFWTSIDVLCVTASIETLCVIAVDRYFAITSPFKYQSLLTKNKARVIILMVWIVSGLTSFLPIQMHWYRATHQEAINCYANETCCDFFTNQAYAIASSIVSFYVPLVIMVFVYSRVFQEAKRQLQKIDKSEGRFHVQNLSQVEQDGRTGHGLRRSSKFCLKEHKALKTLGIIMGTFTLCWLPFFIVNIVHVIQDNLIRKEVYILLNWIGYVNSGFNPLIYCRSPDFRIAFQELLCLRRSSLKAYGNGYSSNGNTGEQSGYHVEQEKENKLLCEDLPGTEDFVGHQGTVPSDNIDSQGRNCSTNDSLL

SMILES: COc1cccc2c(CC(C)NC[C@H](O)c3cccc(Cl)c3)c[nH]c12 (stereo partly drawn) [Example 1-A, 2-[3-(7-methoxyindol-3-yl)-2-propylamino]-(1R)-1-(3-chlorophenyl)ethanol]
- EC50 [1]: 13 nM
- Emax ([1]; read-out: I.A. value β2 -receptor): 36%
- ED25 [2]: 3 µg/kg
- acute toxicity [3]: no toxicity at all
- EC50 ([4]; 50% of cAMP accumulation, CHO/pKREX10-36, 37° C., 30 minutes, read-out: EC50 value β3 -receptor): 0.67 nM
- Emax ([4]; read-out: I.A. value β3 -receptor): 114%
